{
  "source": "paper PMC12081876",
  "about": "“Identification of PTGR2 inhibitors as a new therapeutic strategy for diabetes and obesity” (EMBO Molecular Medicine, 2025)",
  "key": {"Myc-DDK-mPPARγ C313A": {"target": "T1, Myc-DDK-mPPARγ C313A (Mus musculus, UniProt P37238, C313A)", "T1 construct": "host or cells: HEK293T", "assay": "Reciprocal co-immunoprecipitation in HEK293T cells, mPPARγ C313A", "type": "binding, murine", "conditions": "15-keto-PGE2 treated", "description": "HEK293T cells were transfected with murin PPARγ (mPPARγ) and mPPARγ C313A plasmids for immunoprecipitation, which are Myc-DDK-tagged (OriGene, USA). […] According to the manufacturer’s protocol, proteins were immunoprecipitated using Anti-FLAG® M2 Magnetic Beads (2.5 mg/ml; cat. no. F1804, Sigma-Aldrich). Subsequently, the eluted proteins were separated by SDS-PAGE and subjected to immunoblot analysis. Following separation by SDS-PAGE, proteins were stained with Coomassie blue and SYPRO-Ruby stain. The protein bands of interest were cut out for in-gel tryptic digestion followed by C18 Zip-Tip clean-up (Millipore, USA). For proteomic shotgun identifications, nanoLC-nanoESI-MS/MS analysis was performed on a nanoAcquity system (Waters, USA) connected to the LTQ Orbitrap Velos hybrid MS (Thermo Electron, USA) equipped with a PicoView nanospray interface (New Objective, USA). Samples were loaded onto a C18 BEH column (75 μm × 25 cm length, 130 Å, 1.7 μm particle size) (Waters, USA) and separated by a segmented gradient form in 60 min from 5% to 40% acetonitrile (with 0.1% formic acid) at a constant flow rate of 300 nL/min with a column temperature of 35 °C. The mass spectrometer was operated in the data-dependent mode. […] Protein identification and modification were analyzed using Mascot Daemon (Matrix Science Inc., Chicago). […]"}, "[1]": {"system": "HFHSD-fed obese C57BL6/J mice", "assay": "Cold tolerance test (cold-induced thermogenesis)", "type": "in vivo, mouse", "conditions": "for interscapular area temperature, Average / interscapular area temperature: Figure 2T left panel; for interscapular area temperature, Average / rectal temperatures, Average: average of 12 mice; for interscapular area temperature, Average / interscapular area temperature / inguinal area temperature / rectal temperatures, Average / rectal temperatures: in °C (unit assumed); for interscapular area temperature / inguinal area temperature / rectal temperatures: individual mice; for inguinal area temperature: Figure 2T middle panel; for rectal temperatures, Average / rectal temperatures: Figure 2T right panel; for temperature, Figure 2T middle panel, Average: in °C", "description": "For the cold tolerance test, 24-week-old mice with matched average body weight from the two groups were placed individually on HFHSD in a 4 °C chamber. The rectal temperature of the mice was measured after 0, 1, 2, 3, 4, 5, 6, 12, and 18 h. For measuring diet-induced thermogenesis, 24-week-old mice were fasted overnight for 18 h. Then, we measured their rectal temperature at 0, 30, 60, 90, 120, 150, 180, and 240 min after HFHSD refeeding. The rectal and surface temperature were detected by thermal probes (Physitemp Therma TH-5, ThermoWorks, Alpine and MicroTherma 2T, ThermoWorks, Alpine, respectively)."}, "[2]": {"system": "murine PPARγ Ser273 phosphorylation", "assay": "PPARγ Ser273 phosphorylation in adipose tissue of mice", "type": "in vivo, mouse", "conditions": "40 mg/kg/day, 3 weeks, HFHSD", "description": "The epididymal adipose tissues were obtained and lysed in RIPA buffer supplemented with 1X cOmplete™, EDTA-free Protease Inhibitor Cocktail (cat no.04693132001, Roche) and 1X PhosSTOP™ (cat. no. 4906845001, Roche).\nThe protein concentrations of tissue lysates were measured by Bradford reagent (cat. no. BP500-0006, Bio-Rad). The protein samples were mixed with 6X sample buffer (0.3 M Tris-HCl, pH 6.8, 0.6 M DTT, 12% SDS, 0.6% Bromophenel blue and 60% glycerol) and heated at 70 °C for 5 min. 30 μg of each sample were separated by 10% SDS-PAGE gel and were transferred to PVDF membrane. The membrane was blocked by 3% BSA in Tris-buffered saline containing 0.1% Tween-20 for 1 h at room temperature and incubated with primary antibody at 4 °C overnight. Primary antibodies include anti-Ser273 phospho-PPARγ (1:1000, cat. no. BS-4888R, Bioss), anti-PPARγ (1:1500, cat. no.16643-1-AP, Proteintech) and anti-GAPDH (1:5000, cat. no. GTX100118, GeneTex). On the next day, the membranes were incubated with the anti-rabbit IgG HRP-secondary antibody (1:10,000, cat. no. GTX213110-01, GeneTex) for 1 h at RT. Immunoblots were developed using the Immobilon Forte Western HRP Substrate (cat. no. WBLUF0500, Lot Number: 231445, Millipore) and exposed by MultiGel-21 (cat. no. MGIS-21-C2, EBL). Protein expression of phospho-PPARγ was analyzed using ImageJ software and normalized against PPARγ and GAPDH."}},
  "note": "Where “and” joins values, the source holds several entries; their conditions need not be identical. Equal values may be shown once.",
  "data": [
    {"smiles": "CCCCCC(=O)/C=C/[C@H]1[C@H](O)CC(=O)[C@@H]1C/C=C\\CCCC(=O)O", "note": "[15-keto-PGE2, 15-keto-prostaglandin E2]", "values": [
      {"measurement": "co-immunoprecipitation with 15-keto-PGE2-cysteine antibody, mPPARγ C313A", "setting": "Myc-DDK-mPPARγ C313A", "result": "not in samples expressing mPPARγ with C313A mutation"},
      {"measurement": "interscapular, inguinal and rectal temperatures during cold test", "setting": "[1]; 40 mg/kg/day ip, vs vehicle", "result": "higher interscapular, inguinal, and rectal temperatures than vehicle controls during prolonged cold tests"},
      {"measurement": "interscapular area temperature, Average", "setting": "[1]; period 0 hr", "result": 38.275},
      {"measurement": "interscapular area temperature", "setting": "[1]; period 0 hr", "result": "37.4 and 37.9 and 38.2 and 38.1 and 38.9"},
      {"measurement": "interscapular area temperature, Average", "setting": "[1]; period 1 hr", "result": 37.6917},
      {"measurement": "interscapular area temperature", "setting": "[1]; period 1 hr", "result": "37.1 and 37.5 and 37.2 and 37.9 and 37.4"},
      {"measurement": "interscapular area temperature, Average", "setting": "[1]; period 2 hr", "result": 37.3583},
      {"measurement": "interscapular area temperature", "setting": "[1]; period 2 hr", "result": "37.4 and 37.2 and 36.9 and 37.8 and 37.6 and 36.4"},
      {"measurement": "interscapular area temperature, Average", "setting": "[1]; period 3 hr", "result": 37.0083},
      {"measurement": "interscapular area temperature", "setting": "[1]; period 3 hr", "result": "37.2 and 37.1 and 36.5 and 37.3 and 37.5 and 36.4"},
      {"measurement": "interscapular area temperature, Average", "setting": "[1]; period 4 hr", "result": 37.0083},
      {"measurement": "interscapular area temperature", "setting": "[1]; period 4 hr", "result": "37 and 36.8 and 37.6 and 37.3 and 36.2"},
      {"measurement": "interscapular area temperature, Average", "setting": "[1]; period 5 hr", "result": 36.8917},
      {"measurement": "interscapular area temperature", "setting": "[1]; period 5 hr", "result": "36.5 and 37 and 36.7 and 36.9 and 37.1"},
      {"measurement": "interscapular area temperature, Average", "setting": "[1]; period 6 hr", "result": 36.7583},
      {"measurement": "interscapular area temperature", "setting": "[1]; period 6 hr", "result": "36.2 and 36.3 and 36.9 and 37.9 and 37"},
      {"measurement": "interscapular area temperature, Average", "setting": "[1]; period 12 hr", "result": 35.6833},
      {"measurement": "interscapular area temperature", "setting": "[1]; period 12 hr", "result": "36.2 and 37.5 and 34.9 and 35.7 and 35.4"},
      {"measurement": "interscapular area temperature, Average", "setting": "[1]; period 18 hr", "result": 34.8333},
      {"measurement": "interscapular area temperature", "setting": "[1]; period 18 hr", "result": "36.3 and 35.5 and 33.6 and 33.9 and 35.7"},
      {"measurement": "inguinal area temperature", "setting": "[1]; period 0 hr", "result": "36.2 and 36.9 and 37.2"},
      {"measurement": "inguinal area temperature", "setting": "[1]; period 1 hr", "result": "36.2 and 36.8"},
      {"measurement": "inguinal area temperature", "setting": "[1]; period 2 hr", "result": "35.8 and 34.9"},
      {"measurement": "inguinal area temperature", "setting": "[1]; period 3 hr", "result": "35.5 and 34.7"},
      {"measurement": "inguinal area temperature", "setting": "[1]; period 4 hr", "result": "35 and 34.8"},
      {"measurement": "inguinal area temperature", "setting": "[1]; period 5 hr", "result": "34.9 and 34.7"},
      {"measurement": "inguinal area temperature", "setting": "[1]; period 6 hr", "result": "35.2 and 34.9"},
      {"measurement": "inguinal area temperature", "setting": "[1]; period 12 hr", "result": "32.9 and 34.1"},
      {"measurement": "inguinal area temperature", "setting": "[1]; period 18 hr", "result": "33.2 and 33.7"},
      {"measurement": "rectal temperatures, Average", "setting": "[1]; period 0 hr", "result": 37.9667},
      {"measurement": "rectal temperatures", "setting": "[1]; period 0 hr", "result": "37.6 and 38.1 and 38.5 and 37.9 and 36.3 and 38.3 and 38"},
      {"measurement": "rectal temperatures, Average", "setting": "[1]; period 1 hr", "result": 37.1667},
      {"measurement": "rectal temperatures", "setting": "[1]; period 1 hr", "result": "37 and 37.2 and 37.1 and 37.3 and 36.6 and 37.4 and 37.8 and 37.6"},
      {"measurement": "rectal temperatures, Average", "setting": "[1]; period 2 hr", "result": 36.6917},
      {"measurement": "rectal temperatures", "setting": "[1]; period 2 hr", "result": "37.4 and 35.2 and 36.3 and 37 and 37.2 and 36.8 and 36.6 and 36.9 and 36.1 and 36.4"},
      {"measurement": "rectal temperatures, Average", "setting": "[1]; period 3 hr", "result": 36.45},
      {"measurement": "rectal temperatures", "setting": "[1]; period 3 hr", "result": "36.7 and 36 and 36.6 and 36.9 and 35.8 and 37.5 and 36.3 and 36.2 and 36.1 and 36.4"},
      {"measurement": "rectal temperatures, Average", "setting": "[1]; period 4 hr", "result": 36.45},
      {"measurement": "rectal temperatures", "setting": "[1]; period 4 hr", "result": "37 and 36.2 and 36.8 and 37.2 and 36.7 and 36 and 35.7 and 36.4"},
      {"measurement": "rectal temperatures, Average", "setting": "[1]; period 5 hr", "result": 36.4167},
      {"measurement": "rectal temperatures", "setting": "[1]; period 5 hr", "result": "37.6 and 36.4 and 36.3 and 36.1 and 36.5 and 36.7 and 35.8 and 36.2"},
      {"measurement": "rectal temperatures, Average", "setting": "[1]; period 6 hr", "result": 36.4167},
      {"measurement": "rectal temperatures", "setting": "[1]; period 6 hr", "result": "36.8 and 36.6 and 36.4 and 35.6 and 37.3 and 36.1 and 36 and 35.5"},
      {"measurement": "rectal temperatures, Average", "setting": "[1]; period 12 hr", "result": 35.6917},
      {"measurement": "rectal temperatures", "setting": "[1]; period 12 hr", "result": "35.9 and 37.5 and 34.2 and 35.3 and 37.6 and 34.5 and 35.2 and 36.3 and 37.9"},
      {"measurement": "rectal temperatures, Average", "setting": "[1]; period 18 hr", "result": 34.025},
      {"measurement": "rectal temperatures", "setting": "[1]; period 18 hr", "result": "35.7 and 34.9 and 33 and 33.1 and 34.8 and 34.6 and 32 and 34.5 and 33.4 and 33.6 and 34.2"},
      {"measurement": "temperature, Figure 2T middle panel, Average", "setting": "[1]; time 0", "result": 36.2},
      {"measurement": "temperature, Figure 2T middle panel, Average", "setting": "[1]; time 1", "result": 36.0083},
      {"measurement": "temperature, Figure 2T middle panel, Average", "setting": "[1]; time 2", "result": 35.325},
      {"measurement": "temperature, Figure 2T middle panel, Average", "setting": "[1]; time 3", "result": 35.0083},
      {"measurement": "temperature, Figure 2T middle panel, Average", "setting": "[1]; time 4", "result": 34.8083},
      {"measurement": "temperature, Figure 2T middle panel, Average", "setting": "[1]; time 5", "result": 34.6417},
      {"measurement": "temperature, Figure 2T middle panel, Average", "setting": "[1]; time 6", "result": 34.6417},
      {"measurement": "temperature, Figure 2T middle panel, Average", "setting": "[1]; time 12", "result": 34.375},
      {"measurement": "temperature, Figure 2T middle panel, Average", "setting": "[1]; time 18", "result": 33.2583},
      {"measurement": "phosphorylation of PPARγ Ser273", "setting": "[2]", "result": "dose-dependently reduced phosphorylation of Ser273"}
    ]}
  ]
}
